# Laboratory results published in ChEMBL document CHEMBL3885881, “DrugMatrix”.
# Species on record: Rattus norvegicus
# Test: DrugMatrix - Regimen: Daily Repeat
# Assay type: toxicity, organism-based, Sprague-Dawley
# Design: regimen Daily Repeat, gender Male, age 6-8 weeks
# Details: in vivo, po, route oral GAVAGE, […]; for ABSOLUTE BASOPHIL / ABSOLUTE EOSINOPHIL / ABSOLUTE LYMPHOCYTE / ABSOLUTE MONOCYTE / ABSOLUTE SEGMENTED NEUTROPHIL / BASOPHIL / EOSINOPHIL / ERYTHROCYTE COUNT / HEMATOCRIT / HEMOGLOBIN / LEUKOCYTE COUNT / LYMPHOCYTE / MEAN CORPUSCULAR HEMOGLOBIN / MEAN CORPUSCULAR HEMOGLOBIN CONCENTRATION / MEAN CORPUSCULAR VOLUME / MONOCYTE / NEUTROPHIL / NUCLEATED RED BLOOD CELLS / PLATELET COUNT: tissue Blood; for ALANINE AMINOTRANSFERASE / ALBUMIN / ALKALINE PHOSPHATASE / ASPARTATE AMINOTRANSFERASE / BLOOD UREA NITROGEN / CARBON DIOXIDE / CHLORIDE / CHOLESTEROL / CREATINE PHOSPHOKINASE / CREATININE / GLUCOSE / LACTATE DEHYDROGENASE / LIPASE / PHOSPHORUS / POTASSIUM / SODIUM / TOTAL BILIRUBIN / TOTAL PROTEIN / URIC ACID: tissue Plasma
# [1] = 0 mg/kg, 72 h, dose level Control, time 3 day
# [2] = 0 mg/kg, 120 h, dose level Control, time 5 day
# [3] = 0 mg/kg, dose level Control, time 28 day
# [4] = 56 mg/kg, 72 h, dose level Low, time 3 day
smiles,measurement,setting,value
NC[C@@H]1O[C@H](O[C@H]2[C@@H](O)[C@H](O[C@@H]3[C@@H](O)[C@H](N)C[C@H](N)[C@H]3O[C@H]3O[C@H](CN)[C@@H](O)[C@H](O)[C@H]3N)O[C@@H]2CO)[C@H](N)[C@@H](O)[C@@H]1O [FRAMYCETIN],ABSOLUTE BASOPHIL,[1],0 CELLS/uL
same,ABSOLUTE EOSINOPHIL,[1],33 CELLS/uL
same,ABSOLUTE LYMPHOCYTE,[1],9048.5 CELLS/uL
same,ABSOLUTE MONOCYTE,[1],80.17 CELLS/uL
same,ABSOLUTE SEGMENTED NEUTROPHIL,[1],1521.67 CELLS/uL
same,BASOPHIL,[1],0%
same,EOSINOPHIL,[1],0.17%
same,ERYTHROCYTE COUNT,[1],5.46 x10E6/uL
same,HEMATOCRIT,[1],32.87%
same,HEMOGLOBIN,[1],12.95 G/DL
same,LEUKOCYTE COUNT,[1],10.68 x10E3/uL
same,LYMPHOCYTE,[1],86.67%
same,MEAN CORPUSCULAR HEMOGLOBIN,[1],23.72 pg
same,MEAN CORPUSCULAR HEMOGLOBIN CONCENTRATION,[1],39.4 G/DL
same,MEAN CORPUSCULAR VOLUME,[1],60.18 fL
same,MONOCYTE,[1],0.83%
same,NEUTROPHIL,[1],12.33%
same,NUCLEATED RED BLOOD CELLS,[1],0 /100WBC
same,PLATELET COUNT,[1],1211.33 x10E3/uL
same,ALANINE AMINOTRANSFERASE,[1],76.67 u/L
same,ALBUMIN,[1],3.93 G/DL
same,ALKALINE PHOSPHATASE,[1],317.17 u/L
same,ASPARTATE AMINOTRANSFERASE,[1],81.17 u/L
same,BLOOD UREA NITROGEN,[1],12.33 mg/dL
same,CARBON DIOXIDE,[1],31.17 mmol/L
same,CHLORIDE,[1],98.33 MEQ/L
same,CHOLESTEROL,[1],67.17 mg/dL
same,CREATINE PHOSPHOKINASE,[1],312.33 u/L
same,CREATININE,[1],0.19 mg/dL
same,GLUCOSE,[1],165.5 mg/dL
same,LACTATE DEHYDROGENASE,[1],94.5 u/L
same,LIPASE,[1],9.83 u/L
same,PHOSPHORUS,[1],10.1 mg/dL
same,POTASSIUM,[1],5.16 MEQ/L
same,SODIUM,[1],143.02 MEQ/L
same,TOTAL BILIRUBIN,[1],0.2 mg/dL
same,TOTAL PROTEIN,[1],5.88 G/DL
same,URIC ACID,[1],0.68 mg/dL
same,ABSOLUTE BASOPHIL,[2],0 CELLS/uL
same,ABSOLUTE EOSINOPHIL,[2],14.67 CELLS/uL
same,ABSOLUTE LYMPHOCYTE,[2],9629.83 CELLS/uL
same,ABSOLUTE MONOCYTE,[2],72.5 CELLS/uL
same,ABSOLUTE SEGMENTED NEUTROPHIL,[2],1049.67 CELLS/uL
same,NUCLEATED RED BLOOD CELLS,[2],0.17 /100WBC
same,CARBON DIOXIDE,[2],26.4 mmol/L
same,LACTATE DEHYDROGENASE,[2],83.5 u/L
same,LIPASE,[2],85.83 u/L
same,URIC ACID,[2],0.8 mg/dL
same,BASOPHIL,[3],0.42%
same,EOSINOPHIL,[3],0.58%
same,ERYTHROCYTE COUNT,[3],8.06 x10E6/uL
same,HEMATOCRIT,[3],48.44%
same,HEMOGLOBIN,[3],16.34 G/DL
same,LEUKOCYTE COUNT,[3],13.04 x10E3/uL
same,LYMPHOCYTE,[3],85.12%
same,MEAN CORPUSCULAR HEMOGLOBIN,[3],20.26 pg
same,MEAN CORPUSCULAR HEMOGLOBIN CONCENTRATION,[3],33.74 G/DL
same,MEAN CORPUSCULAR VOLUME,[3],60.1 fL
same,MONOCYTE,[3],1.44%
same,NEUTROPHIL,[3],11.28%
same,PLATELET COUNT,[3],1226 x10E3/uL
same,ALANINE AMINOTRANSFERASE,[3],28.6 u/L
same,ALBUMIN,[3],3.94 G/DL
same,ALKALINE PHOSPHATASE,[3],254.6 u/L
same,ASPARTATE AMINOTRANSFERASE,[3],67.8 u/L
same,BLOOD UREA NITROGEN,[3],10.4 mg/dL
same,CHLORIDE,[3],104.6 MEQ/L
same,CHOLESTEROL,[3],57.6 mg/dL
same,CREATINE PHOSPHOKINASE,[3],224.8 u/L
same,CREATININE,[3],0.4 mg/dL
same,GLUCOSE,[3],140.6 mg/dL
same,PHOSPHORUS,[3],10.66 mg/dL
same,POTASSIUM,[3],6.58 MEQ/L
same,SODIUM,[3],148.6 MEQ/L
same,TOTAL BILIRUBIN,[3],0.24 mg/dL
same,TOTAL PROTEIN,[3],6.64 G/DL
same,ABSOLUTE BASOPHIL,[4],0 CELLS/uL
same,ABSOLUTE EOSINOPHIL,[4],0 CELLS/uL
same,ABSOLUTE LYMPHOCYTE,[4],8427.33 CELLS/uL
same,ABSOLUTE MONOCYTE,[4],92.67 CELLS/uL
same,ABSOLUTE SEGMENTED NEUTROPHIL,[4],980 CELLS/uL
same,BASOPHIL,[4],0%
same,EOSINOPHIL,[4],0%
same,ERYTHROCYTE COUNT,[4],5.46 x10E6/uL
same,HEMATOCRIT,[4],33.8%
same,HEMOGLOBIN,[4],13.4 G/DL
same,LEUKOCYTE COUNT,[4],9.5 x10E3/uL
same,LYMPHOCYTE,[4],88.67%
same,MEAN CORPUSCULAR HEMOGLOBIN,[4],24.57 pg
same,MEAN CORPUSCULAR HEMOGLOBIN CONCENTRATION,[4],39.63 G/DL
same,MEAN CORPUSCULAR VOLUME,[4],61.9 fL
same,MONOCYTE,[4],1%
same,NEUTROPHIL,[4],10.33%
same,NUCLEATED RED BLOOD CELLS,[4],0 /100WBC
same,PLATELET COUNT,[4],1108.33 x10E3/uL
same,ALANINE AMINOTRANSFERASE,[4],81 u/L
same,ALBUMIN,[4],4.1 G/DL
same,ALKALINE PHOSPHATASE,[4],367.33 u/L
same,ASPARTATE AMINOTRANSFERASE,[4],87 u/L
same,BLOOD UREA NITROGEN,[4],11.67 mg/dL
same,CARBON DIOXIDE,[4],33.33 mmol/L
same,CHLORIDE,[4],97 MEQ/L
same,CHOLESTEROL,[4],89.67 mg/dL
same,CREATINE PHOSPHOKINASE,[4],277.67 u/L
